These results are taken from ChEMBL document CHEMBL1201862, “PubChem BioAssay data set” (2004).

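Test compounds were applied to cells in 96-well plates for 48 hours at 5 doses. GI50 is the concentration that inhibits growth by half.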 Activity calls are given as the source filed them. Cut-off read from the data, not from the text of the source: active = GI50 up to about 1.1 µM and inactive = higher.

Some test systems named below: MDA-MB-435; MDA-N; IGROV-1; M14; TK-10; HCT-15; SK-OV-3; T47D; SNB-75; CCRF-CEM; OVCAR-5; MDA-MB-231; K562; A498; NCI-H226; DU-145; HCC 2998; HCT-116; CAKI-1.
Holding throughout (experiment): NCI-60 cell line screen, 48 h

Turning to `O=C(O)c1cc(O)c2c(c1)Cc1cccc(O)c1C2=O`, the GI50 in the test with MDA-MB-435 is 33.6 µM (inactive); in the test with MDA-N, > 10 µM (inactive); in the test on IGROV-1 it was > 10 µM (inactive); in the test with M14 it was 23.4 µM (inactive); in the test with TK-10, 34.4 µM (inactive); in the test with HCT-15 it was 17.2 µM. For the same molecule, the GI50 was 30.5 µM (inactive) with SK-OV-3; 38.6 µM (inactive) with T47D; 14.1 µM (inactive) with SNB-75; 29.4 µM (inactive) in the test with CCRF-CEM; 29.9 µM (inactive) in the test on OVCAR-5; 21.5 µM (inactive) in the test with MDA-MB-231. The GI50 is 40 µM (inactive) in the test on K562; 26.9 µM (inactive) in the test on A498; 24.1 µM (inactive) in the test on NCI-H226; 36.5 µM (inactive) in the test with DU-145; 41.4 µM (inactive) in the test with HCC 2998; 23.9 µM (inactive) with HCT-116.
As to `C=CC(Br)(CBr)CCC(Br)C(C)(C)Cl` (stereo not drawn), the GI50 in the test on MDA-MB-435 is 2.3 µM (inactive); with MDA-N, 3.09 µM (inactive); in the test on IGROV-1, 5.31 µM (inactive); in the test on M14 it was 5.14 µM (inactive); with TK-10, 2.72 µM (inactive); in the test on HCT-15 it was 2.58 µM. In addition, the GI50 was 16.3 µM (inactive) in the test on SK-OV-3; 1.67 µM (inactive) with T47D; 2.71 µM (inactive) in the test with SNB-75; 2.22 µM (inactive) with CCRF-CEM; 7.11 µM (inactive) with OVCAR-5; 2.49 µM (inactive) in the test on MDA-MB-231. The GI50 with K562 was 1.75 µM (inactive); in the test on A498, 5.16 µM (inactive); in the test with NCI-H226 it was 25.3 µM (inactive); in the test on DU-145, 3.37 µM (inactive); in the test on HCC 2998 it was 6.22 µM (inactive); in the test with HCT-116, 1.64 µM (inactive).
`CC1OC(O[C@H]2CC[C@]3(C)[C@H]4CC=C5[C@@H]6[C@@H](C)[C@H](C)CC[C@]6(C(=O)OC6OC(CO)C(O)C(O)C6O)CC[C@@]5(C(=O)O)[C@]4(C)CC[C@H]3C2(C)C)C(O)C(O)C1O` (stereo partly drawn): the GI50 in the test with MDA-MB-435 was > 100 µM (inactive); in the test with MDA-N, > 100 µM (inactive); in the test with M14 it was > 100 µM (inactive); with TK-10, > 100 µM (inactive); in the test on HCT-15 it was above 100 µM; in the test with SK-OV-3, > 100 µM (inactive). Also, the GI50 in the test with T47D, in the test on SNB-75, in the test with CAKI-1, with CCRF-CEM, in the test on OVCAR-5 and in the test on MDA-MB-231 was > 100 µM (inactive) in each case. Moreover, the GI50 in the test with K562, in the test on A498, in the test with DU-145, with HCC 2998 and in the test with HCT-116 was > 100 µM (inactive) each time.
On to `O=C1N/C(=N/N=C/c2cccs2)N/C1=C\c1ccco1`, for which the GI50 in the test with MDA-MB-435 is 20.6 µM (inactive); in the test with MDA-N, 2.93 µM (inactive); with IGROV-1, 26.1 µM (inactive); in the test with M14, 8.57 µM (inactive); in the test on TK-10 it was > 100 µM (inactive); in the test on HCT-15, above 100 µM. For the same molecule, the GI50 in the test with SK-OV-3 is 21.9 µM (inactive); in the test on T47D it was > 100 µM (inactive); in the test on SNB-75, 84.7 µM (inactive); with CAKI-1, > 100 µM (inactive); in the test with CCRF-CEM, 12 µM (inactive); with OVCAR-5, > 100 µM (inactive). Moreover, the GI50 in the test on MDA-MB-231 is > 100 µM (inactive); with K562, 37.4 µM (inactive); with A498 it was 17.1 µM (inactive); in the test with NCI-H226 it was 21.3 µM (inactive); in the test on DU-145, > 100 µM (inactive); with HCT-116 it was 35.5 µM (inactive).
In the case of `CC(=O)/C=C1\Nc2sc(C)c(C)c2C(=O)S1`, the GI50 with MDA-MB-435 was 47.3 µM (inactive); in the test on MDA-N, 88.3 µM (inactive); in the test on IGROV-1 it was 29.6 µM (inactive); in the test on M14 it was 97.7 µM (inactive); with TK-10, 80.4 µM (inactive); with HCT-15, 28.9 µM. The GI50 was > 100 µM (inactive) with SK-OV-3; 47.2 µM (inactive) with T47D; 24 µM (inactive) in the test with SNB-75; 65.3 µM (inactive) in the test on CAKI-1; 21.7 µM (inactive) with CCRF-CEM; > 100 µM (inactive) in the test on OVCAR-5. The GI50 in the test with MDA-MB-231 is 88.3 µM (inactive); in the test with K562, 60.4 µM (inactive); in the test on A498, > 100 µM (inactive); with NCI-H226 it was 29.2 µM (inactive); with DU-145, 69.7 µM (inactive); with HCT-116, 31.6 µM (inactive).
In the case of `Clc1cc2c(cc1Cl)CC(NCCN1CCCC1)CC2` (stereo not drawn), the GI50 in the test with MDA-MB-435 was 3.73 µM (inactive); in the test with MDA-N, 3.85 µM (inactive); with IGROV-1, 15.4 µM (inactive); in the test with M14, 12 µM (inactive); in the test with TK-10, 14.4 µM (inactive); with HCT-15, 12.9 µM. Also, the GI50 in the test on SK-OV-3 was 17.7 µM (inactive); with T47D, 10.4 µM (inactive); in the test with CAKI-1 it was 15.7 µM (inactive); in the test with CCRF-CEM it was 26.4 µM (inactive); with OVCAR-5, 14.6 µM (inactive); with MDA-MB-231, 15.1 µM (inactive). The GI50 was 10.8 µM (inactive) in the test on K562; 13.7 µM (inactive) in the test with A498; 15.2 µM (inactive) with NCI-H226; 14.7 µM (inactive) in the test on DU-145; 2.7 µM (inactive) with HCC 2998; 12.9 µM (inactive) with HCT-116.
As for `O=C(CNc1ccccc1[N+](=O)[O-])Nn1c(-c2ccccc2)nc2ccccc2c1=O`, the GI50 in the test on MDA-MB-435 was 24.5 µM (inactive); in the test on MDA-N, 19.9 µM (inactive); with IGROV-1, 16.3 µM (inactive); in the test with M14, 16.7 µM (inactive); in the test with TK-10, > 10 µM (inactive); with HCT-15, 19.9 µM. Moreover, the GI50 in the test on SK-OV-3 was 30.7 µM (inactive); with T47D, 17.3 µM (inactive); in the test with SNB-75, 11.3 µM (inactive); in the test with CCRF-CEM, 15.8 µM (inactive); with OVCAR-5, 22.3 µM (inactive); in the test on MDA-MB-231, 15.7 µM (inactive). Besides, the GI50 in the test on K562 was 16.3 µM (inactive); in the test with A498, 26.2 µM (inactive); in the test with NCI-H226, 29.2 µM (inactive); in the test with DU-145, 28.7 µM (inactive); in the test on HCC 2998 it was 13.5 µM (inactive); in the test on HCT-116 it was 16.1 µM (inactive).
In the case of `COC(=O)[C@H](Cc1c[nH]c2ccccc12)NP(=O)(O)OCC1C=CC(n2cc(C)c(=O)[nH]c2=O)O1` (stereo partly drawn), the GI50 is > 100 µM (inactive) in the test on MDA-MB-435; > 100 µM (inactive) in the test on MDA-N; > 100 µM (inactive) in the test on IGROV-1; above 100 µM with HCT-15; > 100 µM (inactive) in the test on T47D; > 100 µM (inactive) in the test with SNB-75. In addition, the GI50 in the test on CAKI-1, with CCRF-CEM, in the test with MDA-MB-231, in the test on K562, in the test on A498 and with NCI-H226 was > 100 µM (inactive) each time. Moreover, the GI50 with DU-145, in the test with HCC 2998 and in the test with HCT-116 was > 100 µM (inactive) each time.
Take `C=CC1(CC/C(=C\[N+](=O)[O-])c2ccc(OC)c(OC)c2)OCC(C)(C)CO1`: the GI50 with MDA-MB-435 was 19.7 µM (inactive); in the test with MDA-N it was 21.8 µM (inactive); in the test with M14 it was 17.8 µM (inactive); in the test on TK-10, 17.5 µM (inactive); in the test with HCT-15 it was 12.7 µM; in the test on SK-OV-3, 22.4 µM (inactive). The GI50 is 14.5 µM (inactive) in the test with T47D; 23.2 µM (inactive) in the test on CAKI-1; 7.57 µM (inactive) in the test with CCRF-CEM; 16.1 µM (inactive) with OVCAR-5; 25.9 µM (inactive) in the test with MDA-MB-231; 6.61 µM (inactive) with K562. The GI50 was > 10 µM (inactive) with A498; 16.4 µM (inactive) in the test on NCI-H226; 16.7 µM (inactive) in the test on DU-145; 24.5 µM (inactive) in the test with HCC 2998; 18.9 µM (inactive) in the test on HCT-116.
Consider `CNS(=O)(=O)c1ccccc1C(=N)c1ccccc1`, for which the GI50 in the test with MDA-MB-435 is > 100 µM (inactive); in the test on MDA-N, > 100 µM (inactive); in the test on IGROV-1, > 100 µM (inactive); with M14, > 100 µM (inactive); with TK-10, > 100 µM (inactive); in the test on HCT-15, above 100 µM. Also, the GI50 is > 100 µM (inactive) in the test with SK-OV-3; > 100 µM (inactive) with T47D; 56.4 µM (inactive) with SNB-75; > 100 µM (inactive) in the test on CAKI-1; > 100 µM (inactive) with CCRF-CEM; > 100 µM (inactive) in the test on OVCAR-5. The GI50 in the test on MDA-MB-231, in the test on K562, with A498, in the test with NCI-H226, with DU-145 and in the test with HCT-116 was > 100 µM (inactive) in each case.
As to `CN(C)c1ccc(/C=C2\N=C(c3ccccc3)N(c3ccc4c(c3)Sc3cc(N5C(=O)/C(=C/c6ccc(N(C)C)cc6)N=C5c5ccccc5)ccc3N4)C2=O)cc1`, the GI50 was 21.5 µM (inactive) in the test with MDA-MB-435; 53.8 µM (inactive) in the test on MDA-N; 18.1 µM (inactive) with IGROV-1; 21.2 µM (inactive) in the test with M14; 17.2 µM (inactive) in the test with TK-10; 49.2 µM with HCT-15. The GI50 in the test on SK-OV-3 is 13.6 µM (inactive); with T47D, 19.6 µM (inactive); in the test on SNB-75 it was 11.9 µM (inactive); in the test on CAKI-1, 17.9 µM (inactive); in the test on CCRF-CEM, 3.73 µM (inactive); in the test with OVCAR-5, 18.8 µM (inactive). Moreover, the GI50 in the test with MDA-MB-231 was 18.2 µM (inactive); with K562, 29.6 µM (inactive); in the test on A498, 16.8 µM (inactive); in the test on DU-145 it was 22.1 µM (inactive); in the test on HCC 2998, 19.6 µM (inactive); in the test on HCT-116, 26.3 µM (inactive).
